# Measured values taken from article PMC8773409, “Tetrapeptides Modelled to the Androgen Binding Site of ZIP9 Stimulate Expression of Tight Junction Proteins and Tight Junction Formation in Sertoli Cells” (Biology, 2021).
# pEC50: −log10 of the molar value.
# Tests used:
# ZIP9 mRNA = assay: RT-PCR of ZIP9 mRNA after siRNA silencing; type: cell-based, rat; settings: ZIP9-siRNA-treated 93RS2 cells
# Experimental: A total of 6 × 10^4 93RS2 cells were cultured in 2-cm wells of a 6-well plate for 24 h. Thereafter, cells were treated for 48 h either with ZIP9-specific siRNA (ZIP9-siRNA; 5′GGAUUAAGUAAGAGCAGUAtt3′ and 5′UACUGCUCUUACUUAAUCCta3′) to silence ZIP9 expression or with an appropriate negative control siRNA (nc-siRNA), as described previously. ZIP9-siRNA and nc-siRNA were part of the kit Silencer® Select Pre-designed siRNA, provided by Invitrogen (Thermo Fisher Scientific, Schwerte, Germany). After the siRNA treatment, RNeasy® Mini Kit (Qiagen GmbH, Hilden, Germany) was used to isolate mRNA. The concentration of the extracted mRNA was quantified by the NanodropTM One spectrophotometer (Thermo Fisher Scientific, Schwerte, Germany). Samples were measured in duplicate and the average values were used.
# RT-PCR was applied in order to assess the success of silencing ZIP9 expression by siRNA. mRNA that had been isolated from cells treated with either nc-siRNA or ZIP9-specific siRNA was processed to cDNA using the Reverse Transcription System (Promega GmbH, Mannheim, Germany) according to the protocol of the provider. A total of 1 µg cDNA, quantified by the NanodropTM One spectrophotometer, was used in the PCR-Master-Mix ready-to-load (Bio&SELL GmbH, Feucht, Germany) to detect ZIP9-specific cDNA. […]
# ZIP9 = ZIP9 protein immunofluorescence after siRNA silencing; type: cell-based, rat; settings: ZIP9-siRNA-treated 93RS2 cells; n = 30, means ± SEM
# Experimental: (§1) For visualization by immunofluorescence, the medium containing the primary antibody was replaced with PBS containing 1% BSA, 0.3% Triton X-100, and the secondary antibody (goat anti-rabbit IgG diluted at 1:500 in 2% FCS, 0.1 Triton X-100 in PBS) labeled with AlexaFluor 488 (Life Technologies, Darmstadt, Germany). This medium was removed by aspiration after 1 h at room temperature and cells were washed in PBS 3 times. All incubation steps with UV-sensitive reagents were carried out in the dark. An inverse Olympus IX81 microscope equipped with the corresponding fluorescence system (Olympus, Hamburg, Germany) was used to acquire images.
# (§2) Fluorescence was measured according to the instructions of the ImageJ software program (freely available at http://rsbweb.nih.gov/ij/, accessed on 23 December 2021) according to the protocol provided (http://www.slu.se/PageFiles/388774/Pacho%20ImageJ¬¬%20-measuring-cell-fluo¬rescence.pdf, accessed on 23 December 2021). Only green fluorescence was considered. The fluorescence of 3 × 25 cells closest to the diagonals of photomicrographs from 3 independent experiments was considered for statistical analysis. […]
# A total of 6 × 10^4 93RS2 cells were cultured in 2-cm wells of a 6-well plate for 24 h. […] The concentration of the extracted mRNA was quantified by the NanodropTM One spectrophotometer (Thermo Fisher Scientific, Schwerte, Germany). […]
# [1] = tested on: total Erk1/2 in 93RS2 cells; assay: Expression of total Erk1/2 in 93RS2 lysates; type: cell-based, rat; settings: lysates of treated 93RS2 cells; data not shown
# Experimental: (§3) A total of 1 × 10^5 93RS2 cells were grown in 10-cm culture dishes as described above. Cells were then incubated for 24 h with 1% FBS before treatment with various concentrations of the peptides dissolved in medium or testosterone dissolved in ethanol; equal amounts of ethanol were also added to the peptide-treated cells and to control incubations. After 30 min of incubation the medium was removed by aspiration, and cells were washed twice with ice-cold PBS (without Ca^2+ or Mg^2+; Thermo Fisher Scientific, Darmstadt, Germany) and then lysed in 400 µL of a commercially available cell lysis buffer (Cell Signaling Technology, Frankfurt, Germany) according to the protocol of the provider. […] After centrifugation of the lysates at 4 °C for 10 min at 13,000× g, the protein concentration in the supernatants was determined using a bicinchoninic acid (BCA) protein assay reagent kit (Pierce, Rockford, IL, USA) with inclusion of the lysis buffer in the standard curve.
# (§4) For Western blotting, 10 µg of protein from cell lysates was separated by SDS-PAGE on slab gels containing 10% acrylamide and 0.3% N,N′-methylene-bis-acrylamide. […] The resulting chemiluminescence was recorded by exposure to film, which was analyzed with the software program ImageJ (freely available at http://rsbweb.nih.gov/ij/ (accessed on 31 December 2021)). […]
# claudin-1 in 93RS2 cells = assay: Immunofluorescence of claudin-1 in 93RS2 cells; type: cell-based, rat; settings: 10 nM testosterone or 10 µM peptide, 24 h
# [2] = tested on: claudin-1 and claudin-5 expression in rodent Sertoli cells; parameters: method as in PMID 27164415, PMID 12851029, PMID 20403878, doi:10.1093/biolreprod/83.s1.109; settings: ref [6],[29],[34],[35]; cited from earlier work
# [3] = tested on: Erk1/2 phosphorylation (via ZIP9) in 93RS2 cells; assay: Western blot of phospho-Erk1/2 in 93RS2 Sertoli cells; type: cell-based, rat
# Experimental: (§5) The medium was replaced every two days.
# A total of 1 × 10^5 93RS2 cells were grown in 10-cm culture dishes as described above. Cells were then incubated for 24 h with 1% FBS before treatment with various concentrations of the peptides dissolved in medium or testosterone dissolved in ethanol; equal amounts of ethanol were also added to the peptide-treated cells and to control incubations. […] After centrifugation of the lysates at 4 °C for 10 min at 13,000× g, the protein concentration in the supernatants was determined using a bicinchoninic acid (BCA) protein assay reagent kit (Pierce, Rockford, IL, USA) with inclusion of the lysis buffer in the standard curve.
# as §4, with “2021)). Loading differences in the various Western blots were corrected by taking into consideration the optical density of bands corresponding to unphosphorylated Erk1/2 bands or total actin detected in Western blots that were run in parallel.” for “2021)).”
# [4] = tested on: ZO-1 expression in 93RS2 cells; assay: Immunofluorescence of ZO-1 in 93RS2 cells; type: cell-based, rat; settings: 10 nM testosterone or 10 µM peptide, 24 h
# [5] = tested on: CREB/ATF-1 phosphorylation in 93RS2 cells; assay: Immunofluorescence of phospho-CREB/phospho-ATF-1 in 93RS2 cells; type: cell-based, rat; settings: 10 nM testosterone or 10 µM peptide, 30 min
# Experimental: as §5
# (§6) Each chamber of 4-chamber slides was plated with 1 × 10^4 93RS2 cells and cultured as described above to approximately 80% confluence. Incubation was then carried out with either 10 nM testosterone or 10 µM of each of the peptides or with vehicle only (control). The medium was removed by aspiration after 30 min, and cells were fixed for 15 min in absolute methanol containing DAPI (4′,6-diamidino-2-phenylindole). After aspirating the fixative, cells were treated with blocking solution (3% BSA and 0.3% Triton X-100 in PBS) for 1 h. […]
# as §1, with “This medium was removed by aspiration after 1 h at room temperature and cells were washed in PBS 3 times. All incubation steps with UV-sensitive reagents were carried out in the dark.” left out
# as §2, with “considered.” for “considered. The fluorescence of 3 × 25 cells closest to the diagonals of photomicrographs from 3 independent experiments was considered for statistical analysis.”
# claudin-5 in 93RS2 cells = assay: Immunofluorescence of claudin-5 in 93RS2 cells; type: cell-based, rat; settings: 10 nM testosterone or 10 µM peptide, 24 h
# [6] = tested on: 93RS2 Sertoli cells (tight junction formation); assay: Transepithelial electrical resistance (TER) across 93RS2 monolayers; type: cell-based, rat; settings: ZIP9-siRNA; 10 nM testosterone or 10 µM peptides; up to 72 h
# Experimental: as §5
# A total of 3 × 10^4 cells were added to 0.4-µm pore ThinCertsTM (Greiner Bio-one GmbH, Frickenhausen, Germany) arranged within 1-cm wells of a 24-well plate. Cells were cultured for 24 h. Stimulation was then carried out with either testosterone or peptides at concentrations of 0.1, 1, 10, or 100 nM (testosterone) or 0.1, 1, 10, or 100 µM (peptides). Control incubations received ethanol vehicle only. TER was determined after 0, 24, 48, and 72 h, with the first measurement being made immediately after addition of testosterone or peptides. Stimulants remained in the cell medium for the entire duration of the experiment, and during this time the medium was not renewed. A Millicell ERS-2 epithelial Volt-Ohm Meter (Merck Millipore, Darmstadt, Germany) was used to measure TER. Each experiment was repeated three times. Similar experiments were carried out after silencing expression of ZIP9 by siRNA.
# Data were analyzed by GraphPad Prism4 software and by applying either the unpaired t-test with Welch’s corrections or one-way ANOVA with repeated measures and Dunnett´s comparison of all data to the control. Significance was accepted at p ≤ 0.05.
# [7] = tested on: CREB/ATF-1 phosphorylation (via ZIP9) in 93RS2 cells; assay: Western blot of phospho-CREB/phospho-ATF-1 in 93RS2 Sertoli cells; type: cell-based, rat
# Experimental: as §5
# as §3, with “provider. Immediately before use, […], 1× protease inhibitor cocktail (Roche, Mannheim, Germany), and 2 µg/mL pepstatin were added to the lysis buffer. All lysis steps were carried out on ice.” for “provider.”
# as §4, with “2021)). Loading differences in the various Western blots were corrected by taking into consideration the optical density of bands corresponding to unphosphorylated Erk1/2 bands or total actin detected in Western blots that were run in parallel.” for “2021)).”
# Data were analyzed by GraphPad Prism4 software and by applying either the unpaired t-test with Welch’s corrections or one-way ANOVA with repeated measures and Dunnett´s comparison of all data to the control. […]
# [8] = tested on: Erk1/2 phosphorylation in 93RS2 cells; assay: Immunofluorescence of phospho-Erk1/2 in 93RS2 cells; type: cell-based, rat; settings: 10 nM testosterone or 10 µM peptide, 30 min, n = 3 × 25
# Experimental: as §5, §6
# as §1, with “This medium was removed by aspiration after 1 h at room temperature and cells were washed in PBS 3 times. All incubation steps with UV-sensitive reagents were carried out in the dark.” left out
# as §2, with “considered.” for “considered. The fluorescence of 3 × 25 cells closest to the diagonals of photomicrographs from 3 independent experiments was considered for statistical analysis.”
# [9] = tested on: androgen binding site of ZIP9 on 93RS2 cells; assay: Cell-surface labeling with testosterone-BSA-FITC (displacement); settings: 20 min; for labeling of 93RS2 cells by fluorescent conjugate: 5 µM, room temperature, no competitor, ZIP9 expressed
# Experimental: Cells were cultured in a humidified incubator (37 °C, 5% CO2) in 1:1 DMEM:Ham’s F-12 medium with L-glutamine supplemented with 10% (v/v) fetal bovine serum (FBS) and 1% (v/v) penicillin/streptomycin. The medium was replaced every two days.
# A total of 93 RS2 cells were cultured at a density of 5 × 10^3 cells per well in 24-well plates as described above. After reaching about 80% confluence, the cells were treated with either 10 nM testosterone or 1 µM of each of the peptides for 1 h. Both peptide-treated cells and controls were also treated with ethanol vehicle at the same concentration as other plates of cells treated with testosterone dissolved in ethanol. […] After incubation for an additional 20 min at room temperature, the medium was aspirated and cells were fixed in 400 µL ice-cold methanol containing 20 ng of 4,6-diamino-2-phenylindole (DAPI) at room temperature. This solution was aspirated after 15 min and cells were washed with 700 μL PBS. Cell imaging was carried out in 400 µL PBS using an inverse Olympus IX81 microscope (Olympus, Hamburg, Germany).
# In order to account for non-specific binding, cells were incubated for 20 min with 5 µM BSA-FITC (lacking the testosterone moiety) diluted in Tris-Buffer (pH 7.2) at room temperature. After washing twice with PBS and fixing in absolute methanol containing DAPI for 15 min, images were obtained as described above.
# [10] = 30 min, T 0.1-100 nM, peptides 0.1-100 µM, Western blot
compound,measurement,setting,value
"5′GGAUUAAGUAAGAGCAGUAtt3′ and 5′UACUGCUCUUACUUAAUCCta3′ (chain 1 GGAUUAAGUAAGAGCAGUATT; chain 2 UACUGCUCUUACUUAAUCCTA; siRNA; chemistry not fully specified) [ZIP9-siRNA, ZIP9-specific siRNA to silence ZIP9 expression]",presence of ZIP9-specific mRNA/cDNA vs nc-siRNA,ZIP9 mRNA,greatly reduced
same,ZIP9-specific immunofluorescence remaining vs control conditions,ZIP9,7.93 ± 1.1%
C[C@]12CC[C@H]3[C@@H](CCC4=CC(=O)CC[C@@]43C)[C@@H]1CC[C@@H]2O [testosterone],effect on expression of total Erk1/2,[1],without affecting the expression of the enzyme protein
same,"claudin-1 distribution, ZIP9 silenced",claudin-1 in 93RS2 cells; ZIP9-siRNA,This re-distribution was not observed
same,"claudin-1 distribution, ZIP9 expressed",claudin-1 in 93RS2 cells; nc-siRNA,triggered re-distribution of claudin-1 from the cytosol to the membranes or to the nuclei
same,claudin-1 expression level,claudin-1 in 93RS2 cells; nc-siRNA,do not seem to influence the expression level of claudin-1
same,claudin-1 and claudin-5 expression,[2],stimulate claudin-1 and claudin-5 expression
same,"stimulation of Erk1/2 phosphorylation, in words",[3]; [10],stimulated in a concentration-dependent manner the phosphorylation of Erk1/2
same,pEC50,"[3]; Rattus norvegicus, 0.5 h, read-out: EC50 for stimulation of Erk1/2 phosphorylation (approximate, Discussion)",~9.30
same,"ZO-1 expression, ZIP9 silenced",[4]; ZIP9-siRNA,did not respond
same,"ZO-1 expression, ZIP9 expressed",[4]; nc-siRNA,stimulated the expression of zona occludens (ZO-1)
same,"phosphorylation of CREB/ATF-1 by immunofluorescence, ZIP9 silenced",[5]; ZIP9-siRNA-treated cells,complete loss of the stimulatory effect
same,"phosphorylation of CREB/ATF-1 within nuclei by immunofluorescence, ZIP9 expressed",[5]; nc-siRNA-treated cells,stimulated phosphorylation of the transcription factors within the nuclei
same,"claudin-5 expression and localization, ZIP9 silenced",claudin-5 in 93RS2 cells; ZIP9-siRNA,Only basal levels of Claudin-5 are detected
same,"claudin-5 expression, ZIP9 expressed",claudin-5 in 93RS2 cells; nc-siRNA,stimulated the expression of claudin-5
same,"TER increase, ZIP9 silenced",[6],failed to stimulate TER increase
same,"stimulation of CREB/ATF-1 phosphorylation, in words",[7]; [10],stimulate the phosphorylation of the transcription factors CREB and ATF-1
same,pEC50,"[7]; Rattus norvegicus, 0.5 h, read-out: EC50 for CREB and ATF-1 phosphorylation (approximate, Discussion)",~9.30
same,concentration of maximum effect on CREB/ATF-1 phosphorylation,[7]; testosterone (Discussion),10 nM
same,"phosphorylation of Erk1/2 by immunofluorescence, ZIP9 silenced",[8]; ZIP9-siRNA-treated cells,abolished the stimulation of Erk1/2 phosphorylation
same,"phosphorylation of Erk1/2 by immunofluorescence, ZIP9 expressed",[8]; nc-siRNA-treated cells,triggered the phosphorylation of Erk1/2
BSA-FITC: BSA-FITC (lacking the testosterone moiety),labeling of 93RS2 cells by fluorescent conjugate,[9],Relatively low signals of green fluorescence
Testosterone 3-(O-carboxymethyl)oxime:BSA-fluorescein isothiocyanate [T-BSA-FITC],labeling of 93RS2 cells by fluorescent conjugate,[9],uniform green labeling of the extracellular surface of the cells
same,"labeling of cell membranes by testosterone-BSA-FITC, ZIP9 silenced","[9]; ZIP9-siRNA-treated cells, 5 µM T-BSA-FITC",completely prevented
